Data from ChEMBL document CHEMBL2375258, “Synthesis of (R)-norbgugaine and its potential as quorum sensing inhibitor against Pseudomonas aeruginosa” (Bioorg Med Chem Lett, 2013).
Active and inactive are the calls of the source. No cut-off for these calls is given here.

Legend:
Pseudomonas aeruginosa [1] = assay: Inhibition of quorum sensing system in Pseudomonas aeruginosa ATCC 27853 assessed as inhibition of swarming motility at 0.1 to 0.5 mM after 24 hrs relative to control
Pseudomonas aeruginosa [2] = assay: Inhibition of quorum sensing system in Pseudomonas aeruginosa ATCC 27853 assessed as inhibition of rhamnolipid production at 0.1 to 0.5 mM relative to control
Pseudomonas aeruginosa [3] = assay: Inhibition of quorum sensing system in Pseudomonas aeruginosa ATCC 27853 assessed as inhibition of twitching motility at 0.1 to 0.5 mM after 24 hrs relative to control
Pseudomonas aeruginosa [4] = assay: Ratio of compound activity to salicylic acid activity for inhibition of quorum sensing system-mediated biofilm formation in Pseudomonas aeruginosa ATCC 27853
Pseudomonas aeruginosa [5] = assay: Inhibition of quorum sensing system in Pseudomonas aeruginosa ATCC 27853 assessed as inhibition of LasA at 0.1 to 0.5 mM relative to control
Pseudomonas aeruginosa [6] = assay: Inhibition of quorum sensing system in Pseudomonas aeruginosa ATCC 27853 assessed as inhibition of swimming motility at 0.1 to 0.5 mM after 24 hrs relative to control
Pseudomonas aeruginosa [7] = assay: Inhibition of quorum sensing system in Pseudomonas aeruginosa ATCC 27853 assessed as inhibition of […] pigmentation at 0.1 to 0.5 mM relative to control
Pseudomonas aeruginosa [8] = assay: Inhibition of quorum sensing system in Pseudomonas aeruginosa ATCC 27853 assessed as inhibition of biofilm formation at > 1.8 mM after 24 hrs by crystal violet staining method relative to control
Pseudomonas aeruginosa [9] = assay: Antibacterial activity against Pseudomonas aeruginosa ATCC 27853 assessed as growth inhibition at 100 ug/mL measured every 2 hrs up to 20 hrs; assay type: functional, organism-based
Pseudomonas aeruginosa [10] = conditions: ATCC 27853, 4 mM
Description: Inhibition of quorum sensing system in Pseudomonas aeruginosa ATCC 27853 assessed as inhibition of biofilm formation at 4 mM after 24 hrs by crystal violet staining method relative to control

Structure (SMILES)	inhibition (Pseudomonas aeruginosa [1]) [%]	inhibition (Pseudomonas aeruginosa [2]) [%]	inhibition (Pseudomonas aeruginosa [3]) [%]	Ratio (Pseudomonas aeruginosa [4])	inhibition (Pseudomonas aeruginosa [5]) [%]	inhibition (Pseudomonas aeruginosa [6]) [%]	inhibition (Pseudomonas aeruginosa [7]) [%]	inhibition (Pseudomonas aeruginosa [8]) [%]	growth inhibition (GI) (Pseudomonas aeruginosa [9])	inhibition (Pseudomonas aeruginosa [10]) [%]
CCCCCCCCCCCCCC[C@@H]1CCCN1	95	42	15	2	34	33	37	83	inactive	
O=C(O)c1ccccc1O	60		35			40				48
